Source: the Kinase Knowledgebase extract (Sharma et al. 2016)

What follows are molecules tested against MAPK14 (human) (UniProt Q16539) (assay: Inhibition of MAPK14 Kinase Activity).
Sequence of MAPK14 (human) (Q16539 whole entry, looked up): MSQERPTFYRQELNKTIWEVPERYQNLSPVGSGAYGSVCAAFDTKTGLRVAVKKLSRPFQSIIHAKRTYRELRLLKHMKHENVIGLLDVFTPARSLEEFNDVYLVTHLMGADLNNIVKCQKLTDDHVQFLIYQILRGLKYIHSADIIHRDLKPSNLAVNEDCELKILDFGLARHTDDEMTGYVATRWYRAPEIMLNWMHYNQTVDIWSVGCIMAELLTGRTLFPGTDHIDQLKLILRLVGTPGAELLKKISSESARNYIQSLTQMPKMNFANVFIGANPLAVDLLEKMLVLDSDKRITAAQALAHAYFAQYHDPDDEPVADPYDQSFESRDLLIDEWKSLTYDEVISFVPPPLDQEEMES

Structure (SMILES) | IC50 [µM]
CSCCNC(=O)c1ccc(-c2cc(C(=O)NC3CC3)cc(F)c2C)cc1 | < 10
Cc1c(F)cc(C(=O)NC2CC2)cc1-c1ccc(C(=O)NCC2(O)CCCCC2)cc1 | < 10
CC(=O)CC(C)(C)NC(=O)c1ccc(-c2cc(C(=O)NC3CC3)cc(F)c2C)cc1 | < 10
Cc1c(F)cc(C(=O)NC2CC2)cc1-c1ccc(C(=O)N2CCCC2)cc1 | < 10
Cc1c(F)cc(C(=O)NC2CC2)cc1-c1ccc(C(=O)NC2(C#N)CCCCC2)cc1 | < 10
Cc1c(F)cc(C(=O)NC2CC2)cc1-c1ccc(C(=O)NCCS(C)(=O)=O)cc1 | < 10
Cc1c(F)cc(C(=O)NC2CC2)cc1-c1ccc(C(=O)NC(C)(C)C(=O)C(C)C)cc1 | < 10

More lines, now with the values ahead:

IC50 [µM] | Structure (SMILES)
< 10 | Cc1c(F)cc(C(=O)NC2CC2)cc1-c1ccc(C(=O)NCCC#N)cc1
< 10 | CCC(C)(C#N)NC(=O)c1ccc(-c2cc(C(=O)NC3CC3)cc(F)c2C)cc1 (stereo unspecified)
< 10 | Cc1c(F)cc(C(=O)NC2CC2)cc1-c1ccc(C(=O)NC(CO)C2CC2)cc1 (stereo unspecified)
< 10 | Cc1c(F)cc(C(=O)NC2CC2)cc1-c1ccc(C(=O)N2CCC2)cc1
